The target in one test is T1, full length human TREX1 (Homo sapiens, UniProt Q9NSU2).
T1 construct: N-terminally His-Tev tagged full length human TREX1; His-Tev (His tag with TEV protease site) (N); made in house; host or cells: E. coli
T1 sequence (Q9NSU2 1-314): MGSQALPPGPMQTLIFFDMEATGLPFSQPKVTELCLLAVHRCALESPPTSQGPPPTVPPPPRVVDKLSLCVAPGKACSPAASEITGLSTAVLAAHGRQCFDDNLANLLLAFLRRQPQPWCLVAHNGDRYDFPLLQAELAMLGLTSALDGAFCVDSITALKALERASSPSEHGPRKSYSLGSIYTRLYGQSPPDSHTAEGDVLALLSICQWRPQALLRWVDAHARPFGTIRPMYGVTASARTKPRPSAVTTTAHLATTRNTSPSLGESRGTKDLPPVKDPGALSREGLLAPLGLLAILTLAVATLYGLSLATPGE
The test can be described thus: TREX1 Biochemical Assay (fluorescence assay, degradation of dsDNA substrate). As to conditions: 150 pM TREX1, 60 nM dsDNA substrate, 25 minutes at room temperature; read-out: hTREX1 EC50. The essentials:
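E. coli-expressed His-Tev-tagged full-length TREX1 (150 pM) with 60 nM quenched-fluorophore dsDNA in Tris pH 7.4, 150 mM NaCl, 100 mM MgCl2, 1% DMSO, 25 min room temperature, 10-point dose-response. EDTA stop; fluorescence 615 nm (ex 570 nm); IC50 from four-parameter fit against pre-quenched and no-inhibitor controls.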

Test [1] deals with T2, human TREX2 (residues M44-A279) (Homo sapiens, UniProt Q9BQ50).
T2 construct: human TREX2 (residues M44-A279, expressed in E. coli); His-Tev (His tag with TEV protease site) (N); made in house; host or cells: E. coli
T2 sequence (Q9BQ50 44-279 isoform Q9BQ50-1): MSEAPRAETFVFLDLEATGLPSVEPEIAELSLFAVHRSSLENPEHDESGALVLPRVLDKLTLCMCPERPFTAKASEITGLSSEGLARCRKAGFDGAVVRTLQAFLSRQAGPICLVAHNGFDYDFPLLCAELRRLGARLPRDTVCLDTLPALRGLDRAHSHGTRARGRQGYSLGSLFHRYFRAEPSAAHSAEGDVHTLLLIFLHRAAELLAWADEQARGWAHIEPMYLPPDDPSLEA
Description: TREX2 Biochemical Assay (fluorescence assay, degradation of dsDNA substrate). As to conditions: 2.5 nM TREX2, 60 nM dsDNA substrate, 25 minutes at room temperature; read-out: hTREX2 EC50. The essentials: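 His-Tev-tagged human TREX2 (M44-A279, E. coli-expressed) at 2.5 nM final, with 60 nM TEX615/quencher-labelled dsDNA in pH 7.4 Tris buffer with MgCl2 and 1.0% DMSO, 10-point dose-response, 25 min at room temperature, then EDTA quench. Fluorescence read at 615 nm (ex 570 nm). IC50 from four-parameter fit against pre-quenched and no-inhibitor controls.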

pEC50: −log10 of the molar value.

Consider `O=C(c1ccc(Oc2ccccc2)cc1)N(Cc1cccnc1)Cc1ccc(Cl)cc1Cl` [Compound 33], for which the results for the pEC50 (on full length human TREX1; in test [1]) were below 5.00 and below 4.00, respectively.

As to `COc1cc(C(=O)N(Cc2cccnc2)Cc2ccc(Cl)cc2Cl)ccc1F` [Compound 80], the figures for the pEC50 (on full length human TREX1; in test [1]) were below 5.00 and below 4.00, respectively.

For `O=C(O)c1ncc(CN(Cc2ccccc2Cl)C(=O)c2cc(F)cc(F)c2)cn1` [Compound 207], the results for the negative-log EC50 (pEC50) (at full length human TREX1; in test [1]) were 6.00 to 7.00 and 4.00 to 5.00, respectively.

Take `NC(=O)c1ccc(CN(Cc2cccc(Cl)c2Cl)C(=O)c2cccc(F)c2)cn1` [Compound 149]: the pEC50 on full length human TREX1 is below 5.00; in test [1], below 4.00.

As to `O=C(c1cc(Cl)c(O)c(Cl)c1)N(Cc1cccnc1)Cc1ccc(Cl)cc1Cl` [Compound 27], the pEC50 is below 5.00 at full length human TREX1 and below 4.00 in test [1].

Turning to `CC(C)(C)c1ccc(C(=O)N(Cc2cccnc2)Cc2ccc(Cl)cc2Cl)cc1` [Compound 82], the pEC50 at full length human TREX1 is below 5.00; in test [1] it was below 4.00.

On to `O=C(c1cc(F)cc(F)c1)N(Cc1cccnc1)[C@@H](CCO)c1ccc(Cl)cc1Cl` [Compound 261], for which the figures for the pEC50 (at full length human TREX1; in test [1]) were 6.00 to 7.00 and 4.00 to 5.00, respectively.

Take `COc1cc(Br)cc(C(=O)N(Cc2cccnc2)Cc2cc(Cl)cc(Cl)c2)c1` [Compound 52]: the pEC50 was below 5.00 at full length human TREX1 and below 4.00 in test [1].

Take `COc1cccc([C@H](C)N(Cc2ccc(-c3ccn[nH]3)nc2)C(=O)c2cc(F)cc(F)c2)c1Cl` [Compound 224]: the pEC50 was 5.00 to 6.00 on full length human TREX1 and 4.00 to 5.00 in test [1].

Consider `O=C(c1ccc(Br)cc1)N(Cc1cccnc1)Cc1ccc(Cl)cc1Cl` [Compound 6], for which the pEC50 at full length human TREX1 was 5.00 to 6.00; in test [1], below 4.00.

With `O=C(O)c1ccc(CN(Cc2sc(Cl)nc2Cl)C(=O)c2cc(F)cc(F)c2)cn1` [Compound 200], the negative-log EC50 (pEC50) on full length human TREX1 was 6.00 to 7.00; in test [1] it was 4.00 to 5.00.

Regarding `NCC[C@H](c1cccc(Cl)c1Cl)N(Cc1cccnc1)C(=O)c1cc(F)cc(F)c1` [Compound 238], the figures for the pEC50 (at full length human TREX1; in test [1]) were below 5.00 and 4.00 to 5.00, respectively.

Consider `C[C@@H](c1cccc(Cl)c1Cl)N(Cc1ccc(C(=O)O)nc1)C(=O)c1cc(F)cc(F)c1` [Compound 174], for which the negative logarithm of the EC50 (pEC50) is above 7.00 on full length human TREX1 and above 6.00 in test [1].

As to `Nc1ccc(CN(Cc2ccc(Cl)cc2Cl)C(=O)c2cccc(F)c2)cn1` [Compound 146, N-[(6-aminopyridin-3-yl)methyl]-N-[(2,4-dichlorophenyl)methyl]-3-fluorobenzamide], the pEC50 at full length human TREX1 was 5.00 to 6.00; in test [1], below 4.00.

With `O=C(c1ccccc1N1CCCCC1)N(Cc1cccnc1)Cc1ccc(Cl)cc1Cl` [Compound 42], the pEC50 at full length human TREX1 is below 5.00; in test [1], below 4.00.

For `O=C(O)c1ccc(CN(Cc2cccc(Cl)c2Cl)C(=O)c2cc(F)cc(F)c2)c(O)n1` [Compound 247], the results for the negative-log EC50 (pEC50) (at full length human TREX1; in test [1]) were 6.00 to 7.00 and 4.00 to 5.00, respectively.

Regarding `COc1cc(Br)cc(C(=O)N(Cc2cccnc2)Cc2ccc(Cl)cc2Cl)c1` [Compound 87], the pEC50 is below 5.00 on full length human TREX1 and below 4.00 in test [1].

For the molecule `O=C(O)c1ccc(CN(Cc2ccnc(Cl)c2Cl)C(=O)c2cc(F)cc(F)c2)cn1` [Compound 201], the pEC50 on full length human TREX1 is above 7.00; in test [1], 5.00 to 6.00.

With `O=C(c1cccc(-c2ccccc2)c1)N(Cc1cccnc1)Cc1ccc(Cl)cc1Cl` [Compound 43], the figures for the pEC50 (at full length human TREX1; in test [1]) were below 5.00 and below 4.00, respectively.

For the molecule `O=C(O)c1ccc(CN(Cc2cccc(Cl)c2C(F)(F)F)C(=O)c2cc(F)cc(F)c2)cn1` [Compound 198], the pEC50 on full length human TREX1 is 6.00 to 7.00; in test [1], 4.00 to 5.00.

As to `CC[C@H](c1cccc(Cl)c1Cl)N(Cc1cnc(C(=O)O)c(N)c1)C(=O)c1cc(F)cc(F)c1` [Compound 239], the pEC50 at full length human TREX1 was above 7.00; in test [1], 5.00 to 6.00.

`O=C(c1cc(Cl)c(O)c(Cl)c1)N(Cc1cccnc1)Cc1cc(Cl)cc(Cl)c1` [Compound 49]: the pEC50 at full length human TREX1 was below 5.00; in test [1], below 4.00.

As to `O=C(c1ccc(Cl)cc1Br)N(Cc1cccnc1)Cc1cc(Cl)cc(Cl)c1` [Compound 63], the pEC50 at full length human TREX1 is below 5.00; in test [1] it was below 4.00.

With `C[C@H](c1cccnc1)N(Cc1ccc(Cl)cc1Cl)C(=O)c1cccc(F)c1` (single isomer, unassigned) [Compound 153], the pEC50 at full length human TREX1 is below 5.00; in test [1], below 4.00.

`CC(C)c1ccc(C(=O)N(Cc2cccnc2)Cc2cc(Cl)cc(Cl)c2)cc1` [Compound 51]: the results for the pEC50 (on full length human TREX1; in test [1]) were below 5.00 and below 4.00, respectively.

On to `CN(C)c1cc(C(=O)O)ncc1CN(Cc1cccc(Cl)c1Cl)C(=O)c1cc(F)cc(F)c1` [Compound 209], for which the values for the pEC50 (on full length human TREX1; in test [1]) were above 7.00 and 4.00 to 5.00, respectively.

On to `O=C(c1cnco1)N(Cc1cccnc1)Cc1ccc(Cl)cc1Cl` [Compound 117], for which the pEC50 on full length human TREX1 was below 5.00; in test [1], below 4.00.

For `O=C(O)c1ncc(CN(Cc2cccc(Cl)c2Cl)C(=O)c2cc(F)cc(F)c2)cc1O` [Compound 257], the pEC50 is above 7.00 at full length human TREX1 and 4.00 to 5.00 in test [1].

On to `O=C(c1cccc(Oc2ccccc2)c1)N(Cc1cccnc1)Cc1ccc(Cl)cc1Cl` [Compound 31], for which the pEC50 on full length human TREX1 was below 5.00; in test [1] it was below 4.00.

Take `O=C(c1cc(F)cc(F)c1)N(Cc1cccnc1)Cc1ccc(Cl)cc1Cl` [Compound 121]: the figures for the pEC50 (on full length human TREX1; in test [1]) were 6.00 to 7.00 and 4.00 to 5.00, respectively.

Regarding `O=C(c1cccc(-c2ccccc2)c1)N(Cc1cccnc1)Cc1cc(Cl)cc(Cl)c1` [Compound 56], the results for the negative logarithm of the EC50 (pEC50) (at full length human TREX1; in test [1]) were below 5.00 and below 4.00, respectively.

In the case of `NCC[C@@H](c1cccc(Cl)c1Cl)N(Cc1cccnc1)C(=O)c1cc(F)cc(F)c1` [Compound 237], the negative-log EC50 (pEC50) on full length human TREX1 was below 5.00; in test [1] it was 4.00 to 5.00.

Consider `O=C(c1ccc(Br)cc1Cl)N(Cc1cccnc1)Cc1cc(Cl)cc(Cl)c1` [Compound 70], for which the pEC50 at full length human TREX1 was below 5.00; in test [1], below 4.00.

With `CC(C)[C@@H](c1ccc(Cl)cc1Cl)N(Cc1cccnc1)C(=O)c1cccc(F)c1` (single isomer, unassigned) [Compound 160], the values for the negative-log EC50 (pEC50) (on full length human TREX1; in test [1]) were 5.00 to 6.00 and 4.00 to 5.00, respectively.

Turning to `O=C(c1cccc(F)c1)N(Cc1ccccn1)Cc1ccc(Cl)cc1Cl` [Compound 95], the results for the negative-log EC50 (pEC50) (on full length human TREX1; in test [1]) were below 5.00 and below 4.00, respectively.

With `O=C(c1ccc(O)c(Br)c1)N(Cc1cccnc1)Cc1cc(Cl)cc(Cl)c1` [Compound 73], the figures for the negative logarithm of the EC50 (pEC50) (on full length human TREX1; in test [1]) were below 5.00 and below 4.00, respectively.

Consider `O=C(c1ccccc1)N(Cc1cccnc1)Cc1ccc(Cl)cc1Cl` [Compound 2], for which the pEC50 on full length human TREX1 was 5.00 to 6.00; in test [1] it was below 4.00.

In the case of `Cc1ccc(CN(Cc2ccc(Cl)cc2Cl)C(=O)c2cccc(F)c2)cn1` [Compound 110], the pEC50 on full length human TREX1 was below 5.00; in test [1] it was below 4.00.

In the case of `O=C(Cc1ccccc1)N(Cc1cccnc1)Cc1ccc(Cl)cc1Cl` [Compound 94], the pEC50 on full length human TREX1 is below 5.00; in test [1] it was below 4.00.

With `O=C(c1cc(Br)c(O)c(Br)c1)N(Cc1cccnc1)Cc1cc(Cl)cc(Cl)c1` [Compound 53], the pEC50 on full length human TREX1 is below 5.00; in test [1] it was 4.00 to 5.00.

Turning to `CC(C)(C)OC(=O)Nc1cncc(CN(Cc2cccc(Cl)c2Cl)C(=O)c2cc(F)cc(F)c2)c1` [Compound 212], the pEC50 at full length human TREX1 is 6.00 to 7.00; in test [1], 5.00 to 6.00.

Turning to `C[C@@H](c1cccnc1)N(Cc1ccc(Cl)cc1Cl)C(=O)c1cccc(F)c1` (single isomer, unassigned) [Compound 154], the values for the pEC50 (on full length human TREX1; in test [1]) were below 5.00 and below 4.00, respectively.

With `O=C(c1ccc(CO)cc1)N(Cc1cccnc1)Cc1ccc(Cl)cc1Cl` [Compound 83], the pEC50 is below 5.00 at full length human TREX1 and below 4.00 in test [1].

In the case of `O=C(c1cc(F)cc(F)c1)N(Cc1cccnc1CO)Cc1cccc(Cl)c1Cl` [Compound 180], the pEC50 on full length human TREX1 was 6.00 to 7.00; in test [1] it was 5.00 to 6.00.

Regarding `O=C(O)c1ccc(CN(Cc2nccc(Cl)c2Cl)C(=O)c2cc(F)cc(F)c2)cn1` [Compound 203], the pEC50 was above 7.00 on full length human TREX1 and 5.00 to 6.00 in test [1].

Consider `COc1ccnc(CN(Cc2ccc(C(=O)O)nc2)C(=O)c2cc(F)cc(F)c2)c1Cl` [Compound 189], for which the pEC50 is 6.00 to 7.00 at full length human TREX1 and 4.00 to 5.00 in test [1].

The values above are taken from patent US20230233541A1, “SUBSTITUTED BENZAMIDES AS MODULATORS OF TREX1” (Constellation Pharmaceuticals, Inc., priority 2020, published 2023).
